Data from PubChem BioAssay (NCI).
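Step 1: Grow cells in 96-well plates. Step 2: Expose to compound for 48 hours at 5 concentrations. Step 3: Interpolate endpoints linearly; if unreached, use highest concentration. GI50: concentration for 50% inhibition of growth. TGI: concentration producing complete growth inhibition.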

Experiments:
Assay in all cases: NCI-60 cell line screen, 48 h
[1] = test system: HCT-15 colon
[2] = test system: OVCAR-8 ovarian
[3] = test system: A549 NSCLC
[4] = test system: CAKI-1 renal
[5] = test system: T-47D breast
[6] = test system: EKVX NSCLC
[7] = test system: OVCAR-4 ovarian
[8] = test system: LOX IMVI melanoma
[9] = test system: SF-268 CNS
[10] = test system: PC-3 prostate
[11] = test system: HOP-92 NSCLC
[12] = test system: UACC-257 melanoma
[13] = test system: UACC-62 melanoma
[14] = test system: SW-620 colon
[15] = test system: SF-539 CNS
[16] = test system: NCI-H226 lung
[17] = test system: MALME-3M melanoma
[18] = test system: RXF 393 renal
[19] = test system: BT-549 breast
[20] = test system: SK-MEL-28 melanoma
[21] = test system: UO-31 renal
[22] = test system: SK-OV-3 ovarian
[23] = test system: HCT-116 colon
[24] = test system: COLO 205 colon
[25] = test system: RPMI-8226 leukemia
[26] = test system: MOLT-4 leukemia
[27] = test system: NCI-H23 lung
[28] = test system: ACHN renal
[29] = test system: CCRF-CEM leukemia
[30] = test system: HL-60(TB) leukemia
[31] = test system: KM12 colon
[32] = test system: NCI-H460 lung
[33] = test system: MDA-MB-468 breast
[34] = test system: SR leukemia
[35] = test system: MDA-MB-435
[36] = test system: DU-145 prostate
[37] = test system: 786-0 renal
[38] = test system: U251 CNS
[39] = test system: SNB-19 CNS
[40] = test system: SK-MEL-5 melanoma
[41] = test system: K-562 leukemia
[42] = test system: A498 renal
[43] = test system: OVCAR-3 ovarian
[44] = test system: TK-10 renal
[45] = test system: IGROV1 ovarian
[46] = test system: SN12C renal
[47] = test system: SF-295 CNS
[48] = test system: SNB-75 CNS
[49] = test system: NCI/ADR-RES ovarian
[50] = test system: SK-MEL-2 melanoma
[51] = test system: HCC-2998 colon
[52] = test system: MDA-MB-231 breast
[53] = test system: HT29 colon
[54] = test system: HOP-62 NSCLC
[55] = test system: NCI-H522 lung
[56] = test system: OVCAR-5 ovarian
[57] = test system: M14 melanoma
[58] = test system: HS 578T breast
[59] = test system: MCF7 breast

SMILES: O=c1ccc(Cn2c(C(F)(F)F)cc3c(Cl)ncnc32)c[nH]1
- GI50 [1]: 2.93 µM
- TGI [1]: 14.9 µM
- GI50 [2]: 3.51 µM
- TGI [2]: 17.3 µM
- GI50 [3]: 64.8 µM
- TGI [3]: > 100 µM
- GI50 [4]: 23.5 µM
- TGI [4]: 99.4 µM
- GI50 [5]: 30.3 µM
- TGI [5]: > 100 µM
- GI50 [6]: 14.2 µM
- TGI [6]: 36 µM
- GI50 [7]: 17.9 µM
- TGI [7]: 44.6 µM
- GI50 [8]: 1.65 µM
- TGI [8]: 3.11 µM
- GI50 [9]: 10.6 µM
- TGI [9]: 28.9 µM
- GI50 [10]: 17.1 µM
- TGI [10]: 55.8 µM
- GI50 [11]: 23 µM
- TGI [11]: > 100 µM
- GI50 [12]: 3.18 µM
- TGI [12]: 12.9 µM
- GI50 [13]: 5.55 µM
- TGI [13]: 19.7 µM
- GI50 [14]: 5.55 µM
- TGI [14]: 26.3 µM
- GI50 [15]: 17.3 µM
- TGI [15]: 40.9 µM
- GI50 [16]: 31.7 µM
- TGI [16]: > 100 µM
- GI50 [17]: 15.9 µM
- TGI [17]: 35 µM
- GI50 [18]: 11.2 µM
- TGI [18]: 32.1 µM
- GI50 [19]: 14 µM
- TGI [19]: 28.8 µM
- GI50 [20]: 3.9 µM
- TGI [20]: 18.7 µM
- GI50 [21]: 5.05 µM
- TGI [21]: 19.2 µM
- GI50 [22]: 44.3 µM
- TGI [22]: > 100 µM
- GI50 [23]: 3.51 µM
- TGI [23]: 29.2 µM
- GI50 [24]: 86.6 µM
- TGI [24]: > 100 µM
- GI50 [25]: 23 µM
- TGI [25]: > 100 µM
- GI50 [26]: 3.21 µM
- TGI [26]: 17.2 µM
- GI50 [27]: 3.97 µM
- TGI [27]: 18.4 µM
- GI50 [28]: 22.2 µM
- TGI [28]: > 100 µM
- GI50 [29]: 4.32 µM
- TGI [29]: > 100 µM
- GI50 [30]: 2.1 µM
- TGI [30]: 5.97 µM
- GI50 [31]: 17.9 µM
- TGI [31]: 40.3 µM
- GI50 [32]: 12 µM
- TGI [32]: 36.2 µM
- GI50 [33]: 2.1 µM
- TGI [33]: 5.73 µM
- GI50 [34]: 2.73 µM
- TGI [34]: 11.8 µM
- GI50 [35]: 4.69 µM
- TGI [35]: 20.5 µM
- GI50 [36]: 38.7 µM
- TGI [36]: > 100 µM
- GI50 [37]: 43.5 µM
- TGI [37]: > 100 µM
- GI50 [38]: 22.5 µM
- TGI [38]: 69.2 µM
- GI50 [39]: 20.7 µM
- TGI [39]: 59.4 µM
- GI50 [40]: 4.06 µM
- TGI [40]: 15 µM
- GI50 [41]: 2.83 µM
- TGI [41]: > 100 µM
- GI50 [42]: > 100 µM
- TGI [42]: > 100 µM
- GI50 [43]: 14.9 µM
- TGI [43]: 32.8 µM
- GI50 [44]: > 100 µM
- TGI [44]: > 100 µM
- GI50 [45]: 2.29 µM
- TGI [45]: 6.09 µM
- GI50 [46]: 6.42 µM
- TGI [46]: 23.4 µM
- GI50 [47]: 28.2 µM
- TGI [47]: > 100 µM
- GI50 [48]: 10.7 µM
- TGI [48]: 23.2 µM
- GI50 [49]: 14.2 µM
- TGI [49]: 40.3 µM
- GI50 [50]: 16.9 µM
- TGI [50]: 32.6 µM
- GI50 [51]: 2.9 µM
- TGI [51]: 10.1 µM
- GI50 [52]: 4.65 µM
- TGI [52]: 18.2 µM
- GI50 [53]: 29 µM
- TGI [53]: > 100 µM
- GI50 [54]: 46.7 µM
- TGI [54]: > 100 µM
- GI50 [55]: 2.05 µM
- TGI [55]: 4.85 µM
- GI50 [56]: 61.7 µM
- TGI [56]: > 100 µM
- GI50 [57]: 4.08 µM
- TGI [57]: 22.1 µM
- GI50 [58]: 8.76 µM
- TGI [58]: 50.4 µM
- GI50 [59]: 21.1 µM
- TGI [59]: 67.9 µM
